molecular target: recombinant, human, C-terminally-His tagged NAMPT (Homo sapiens, UniProt P43490); test: Time-Resolved Fluorescence Resonance Energy Transfer (TR-FRET) binding assay of NAMPT; settings: 6.8 nM NAMPT, 200 nM probe (Oregon Green 488-conjugated APO866), 1 nM Tb-anti-His antibody, 2-3 hours
Method: Determination of the utility of compounds having Formula (I) as binders to and inhibitors of NAMPT was performed using a Time-Resolved Fluorescence Resonance Energy Transfer (TR-FRET) binding assay.
Time-Resolved Fluorescence Resonance Energy Transfer (TR-FRET) Binding Assay of NAMPT
The assay was carried out in 18 uL low volume plates (Owens Corning) in reaction buffer (50 mM HEPES (NaOH), pH 7.5, 100 mM NaCl, 10 mM MgCl2, 1 mM DTT, 1% Glycerol) using 6.8 nM recombinant, human, C-terminally-His tagged NAMPT, 1 nM Tb-anti-His antibody (Invitrogen, Cat # PV5895), and 200 nM probe (Oregon Green 488-conjugated APO866; A-1251667.0). Plates were covered, and reactions were carried out for 2-3 hours. Plates were read with Envision (Laser Lantha low volume protocol) after 2 to 3 hours. Excitation was carried out at 337 nm, and the ratio of emission of Oregon Green (520 nm) to terbium (492 nm) was determined and used to calculate IC50 values of test compounds.

recombinant, human, C-terminally-His tagged NAMPT, sequence (P43490 whole entry): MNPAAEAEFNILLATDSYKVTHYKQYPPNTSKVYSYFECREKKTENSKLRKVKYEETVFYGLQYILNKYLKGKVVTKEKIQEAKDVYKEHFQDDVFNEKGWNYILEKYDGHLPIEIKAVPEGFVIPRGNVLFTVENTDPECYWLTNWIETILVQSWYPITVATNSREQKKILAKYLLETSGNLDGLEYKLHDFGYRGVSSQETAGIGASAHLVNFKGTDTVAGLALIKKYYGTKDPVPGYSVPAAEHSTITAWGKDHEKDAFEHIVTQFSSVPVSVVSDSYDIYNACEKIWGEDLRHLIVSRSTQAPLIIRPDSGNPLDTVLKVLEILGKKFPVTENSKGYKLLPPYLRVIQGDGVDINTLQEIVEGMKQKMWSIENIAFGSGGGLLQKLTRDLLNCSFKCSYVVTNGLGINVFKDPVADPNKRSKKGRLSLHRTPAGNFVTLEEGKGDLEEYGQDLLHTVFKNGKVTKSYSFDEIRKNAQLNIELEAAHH

| IC50 [nM] | Compound |
| --- | --- |
| 16.8 | CCCCCCC(=O)Nc1ccc(NC(=O)N2CCc3ccccc3C2)cc1 [Example 72, N-[4-(heptanoylamino)phenyl]-3,4-dihydroisoquinoline-2(1H)-carboxamide] |
| 645 | CCn1cc(-c2ccc(NC(=O)N3CCc4ccccc4C3)cc2)cn1 [Example 40, N-[4-(1-ethyl-1H-pyrazol-4-yl)phenyl]-3,4-dihydroisoquinoline-2(1H)-carboxamide] |
| 1290 | Cn1cc(-c2ccc(NC(=O)N3CCc4ccccc4C3)cc2)cn1 [Example 42, N-[4-(1-methyl-1H-pyrazol-4-yl)phenyl]-3,4-dihydroisoquinoline-2(1H)-carboxamide] |
| 191 | O=C(Nc1ccc(NC(=O)N2CCc3ccccc3C2)cc1)c1ccccc1 [Example 80, N-[4-(benzoylamino)phenyl]-3,4-dihydroisoquinoline-2(1H)-carboxamide] |
| 13.8 | CC(C)S(=O)(=O)N1CC=C(c2ccc(NC(=O)N3CCc4ccccc4C3)cc2)CC1 [Example 45, N-{4-[1-(isopropylsulfonyl)-1,2,3,6-tetrahydropyridin-4-yl]phenyl}-3,4-dihydroisoquinoline-2(1H)-carboxamide] |
| 178 | O=C(NCCc1cccs1)c1ccc(NC(=O)N2CCc3ccccc3C2)cc1 [Example 17, N-(4-{[2-(2-thienyl)ethyl]carbamoyl}phenyl)-3,4-dihydroisoquinoline-2(1H)-carboxamide] |
| 103 | CCCn1cc(-c2ccc(NC(=O)N3CCc4ccccc4C3)cc2)cn1 [Example 35, N-[4-(1-propyl-1H-pyrazol-4-yl)phenyl]-3,4-dihydroisoquinoline-2(1H)-carboxamide] |
| 1250 | O=C(Cc1ccccc1)NCCc1ccc(NC(=O)N2CCc3ccccc3C2)cc1 [Example 61, N-(4-{2-[(phenylacetyl)amino]ethyl}phenyl)-3,4-dihydroisoquinoline-2(1H)-carboxamide] |
| 5840 | CN(C)CCC(=O)Nc1ccc(NC(=O)N2CCc3ccccc3C2)cc1 [Example 92, N-{4-[(N,N-dimethyl-beta-alanyl)amino]phenyl}-3,4-dihydroisoquinoline-2(1H)-carboxamide] |
| 49 | Nc1ccc(CCC(=O)Nc2ccc(NC(=O)N3CCc4ccccc4C3)cc2)cc1 [Example 82, N-(4-{[3-(4-aminophenyl)propanoyl]amino}phenyl)-3,4-dihydroisoquinoline-2(1H)-carboxamide] |
| 6.16 | CC(C)CCC(=O)Nc1ccc(NC(=O)N2CCc3ccccc3C2)cc1 [Example 31, N-{4-[(4-methylpentanoyl)amino]phenyl}-3,4-dihydroisoquinoline-2(1H)-carboxamide] |
| 1500 | CC(C)CCNC(=O)Cc1ccc(NC(=O)N2CCc3ccccc3C2)cc1 [Example 29, N-(4-{2-[(3-methylbutyl)amino]-2-oxoethyl}phenyl)-3,4-dihydroisoquinoline-2(1H)-carboxamide] |
| 366 | O=C(NCCc1cccs1)c1ccc(NC(=O)N2CCc3ccc(F)cc3C2)cc1 [Example 23, 7-fluoro-N-(4-{[2-(2-thienyl)ethyl]carbamoyl}phenyl)-3,4-dihydroisoquinoline-2(1H)-carboxamide] |
| 864 | CCCCCCNC(=O)N1CCc2ccccc2C1 [Example 59, N-hexyl-3,4-dihydroisoquinoline-2(1H)-carboxamide] |
| 185 | C[C@@H](O)Cn1cc(-c2ccc(NC(=O)N3CCc4ccccc4C3)cc2)cn1 [Example 36, N-{4-[1-((2R)-2-hydroxypropyl)-1H-pyrazol-4-yl]phenyl}-3,4-dihydroisoquinoline-2(1H)-carboxamide] |
| 1470 | CC(C)C(=O)NCCc1ccc(NC(=O)N2CCc3ccccc3C2)cc1 [Example 62, N-{4-[2-(isobutyrylamino)ethyl]phenyl}-3,4-dihydroisoquinoline-2(1H)-carboxamide] |
| 289 | O=C(Nc1ccc(C2=CCNCC2)cc1)N1CCc2ccccc2C1 [Example 54, N-[4-(1,2,3,6-tetrahydropyridin-4-yl)phenyl]-3,4-dihydroisoquinoline-2(1H)-carboxamide] |
| 66.3 | O=C(Nc1ccc(NC(=O)N2CCc3ccccc3C2)cc1)C1CCCCC1 [Example 78, N-{4-[(cyclohexylcarbonyl)amino]phenyl}-3,4-dihydroisoquinoline-2(1H)-carboxamide] |
| 33.2 | O=C(CCC(F)(F)F)Nc1ccc(NC(=O)N2CCc3ccccc3C2)cc1 [Example 73, N-{4-[(4,4,4-trifluorobutanoyl)amino]phenyl}-3,4-dihydroisoquinoline-2(1H)-carboxamide] |

| IC50 [nM] | Compound |
| --- | --- |
| 171 | CC(C)CCNC(=O)c1ccc(NC(=O)N2CCc3ccc(F)cc3C2)cc1 [Example 16, 7-fluoro-N-{4-[(3-methylbutyl)carbamoyl]phenyl}-3,4-dihydroisoquinoline-2(1H)-carboxamide] |
| 29.1 | O=C(NCCCc1ccccc1)c1ccc(NC(=O)N2CCc3ccccc3C2)nc1 [Example 9, N-{5-[(3-phenylpropyl)carbamoyl]pyridin-2-yl}-3,4-dihydroisoquinoline-2(1H)-carboxamide] |
| 2110 | O=C(NCCc1cccs1)c1ccc(NC(=O)N2CCc3ccncc3C2)cc1 [Example 30, N-(4-{[2-(2-thienyl)ethyl]carbamoyl}phenyl)-3,4-dihydro-2,7-naphthyridine-2(1H)-carboxamide] |
| 5.16 | O=C(CC1CCCC1)Nc1ccc(NC(=O)N2CCc3ccccc3C2)cc1 [Example 77, N-{4-[(cyclopentylacetyl)amino]phenyl}-3,4-dihydroisoquinoline-2(1H)-carboxamide] |
| 20.2 | CC(C)CC(=O)N1CC=C(c2ccc(NC(=O)N3CCc4ccccc4C3)cc2)CC1 [Example 47, N-{4-[1-(3-methylbutanoyl)-1,2,3,6-tetrahydropyridin-4-yl]phenyl}-3,4-dihydroisoquinoline-2(1H)-carboxamide] |
| 15.3 | O=C(CCC(=O)c1cccs1)Nc1ccc(NC(=O)N2CCc3ccccc3C2)cc1 [Example 66, N-(4-{[4-oxo-4-(2-thienyl)butanoyl]amino}phenyl)-3,4-dihydroisoquinoline-2(1H)-carboxamide] |
| 16 | O=C(Cc1ccccn1)Nc1ccc(NC(=O)N2CCc3ccccc3C2)cc1 [Example 91, N-{4-[(pyridin-2-ylacetyl)amino]phenyl}-3,4-dihydroisoquinoline-2(1H)-carboxamide] |
| 16.7 | CC(C)CCNC(=O)c1ccc(NC(=O)N2CCc3ccccc3C2)cc1 [Example 1, N-{4-[(3-methylbutyl)carbamoyl]phenyl}-3,4-dihydroisoquinoline-2(1H)-carboxamide] |
| 10.3 | CC(C)CCNC(=O)c1ccc(NC(=O)N2CCc3cc(F)ccc3C2)cc1 [Example 6, 6-fluoro-N-{4-[(3-methylbutyl)carbamoyl]phenyl}-3,4-dihydroisoquinoline-2(1H)-carboxamide] |
| 5.3 | O=C(CC1CCCCC1)Nc1ccc(NC(=O)N2CCc3ccccc3C2)cc1 [Example 79, N-{4-[(cyclohexylacetyl)amino]phenyl}-3,4-dihydroisoquinoline-2(1H)-carboxamide] |
| 819 | O=C(Nc1ccc(-c2cnn(CCO)c2)cc1)N1CCc2ccccc2C1 [Example 41, N-{4-[1-(2-hydroxyethyl)-1H-pyrazol-4-yl]phenyl}-3,4-dihydroisoquinoline-2(1H)-carboxamide] |
| 74.9 | CC(C)CS(=O)(=O)N1CC=C(c2ccc(NC(=O)N3CCc4ccccc4C3)cc2)CC1 [Example 51, N-{4-[1-(isobutylsulfonyl)-1,2,3,6-tetrahydropyridin-4-yl]phenyl}-3,4-dihydroisoquinoline-2(1H)-carboxamide] |
| 97.6 | O=C(NCCc1ccccc1)c1ccc(NC(=O)N2CCc3ccccc3C2)cc1 [Example 15, N-{4-[(2-phenylethyl)carbamoyl]phenyl}-3,4-dihydroisoquinoline-2(1H)-carboxamide] |
| 3 | CS(=O)(=O)Nc1cccc2c1CCN(C(=O)Nc1ccc(NC(=O)CC3CCCC3)cc1)C2 [Example 98, N-{4-[(cyclopentylacetyl)amino]phenyl}-5-[(methylsulfonyl)amino]-3,4-dihydroisoquinoline-2(1H)-carboxamide] |
| 1250 | CC(C)CCNC(=O)c1ccc(NC(=O)N2CCc3ccncc3C2)cc1 [Example 28, N-{4-[(3-methylbutyl)carbamoyl]phenyl}-3,4-dihydro-2,7-naphthyridine-2(1H)-carboxamide] |
| 47.1 | O=C(Nc1cnn(Cc2ccccc2)c1)c1ccc(NC(=O)N2CCc3ccccc3C2)cc1 [Example 14, N-{4-[(1-benzyl-1H-pyrazol-4-yl)carbamoyl]phenyl}-3,4-dihydroisoquinoline-2(1H)-carboxamide] |
| 248 | O=C(NCCCc1ccccc1)c1ccc(NC(=O)N2CCc3ccc(F)cc3C2)cc1 [Example 20, 7-fluoro-N-{4-[(3-phenylpropyl)carbamoyl]phenyl}-3,4-dihydroisoquinoline-2(1H)-carboxamide] |
| 128 | CN1CCN(CCC(=O)Nc2ccc(NC(=O)N3CCc4ccccc4C3)cc2)CC1 [Example 96, N-(4-{[3-(4-methylpiperazin-1-yl)propanoyl]amino}phenyl)-3,4-dihydroisoquinoline-2(1H)-carboxamide] |
| 80.5 | O=C(Nc1ccc(C2=CCN(Cc3ccccc3)CC2)cc1)N1CCc2ccccc2C1 [Example 52, N-[4-(1-benzyl-1,2,3,6-tetrahydropyridin-4-yl)phenyl]-3,4-dihydroisoquinoline-2(1H)-carboxamide] |

Source: patent US20120122924A1, “NAMPT INHIBITORS” (ABBOTT LABORATORIES, priority 2010, published 2012)
